Experimental data as given in patent publication US9067914B1, “Tropomyosin-related kinase (TRK) inhibitors” (Genzyme Corporation, priority 2013, dated 2015).
Counter-ions that a name gives are not always drawn.

What was measured:
TrkB = TrkB (Homo sapiens (Human), UniProt Q16620); experiment: TrkB activity, off-chip mobility shift assay (LabChip 3000); assay type: biochemical; conditions: 70 μM ATP (ATP Km); n/d = none detected
From the text: (§1) Reagents and consumables were purchased from Sigma Aldrich, Carna Biosciences, or Caliper Life Sciences. All assay reaction conditions for IC50 determinations were within the linear range with respect to time and enzyme concentration. […] The LabChip 3000 separates and measures the fluorescent signal of fluorescein labeled peptide substrate and fluorescein labeled peptide product present in each well. Results are expressed as percent conversion by measuring peak height for both the substrate and product and dividing the product peak height by the sum of peak heights for both substrate and product.

TrkA = TrkA (Homo sapiens (Human), UniProt P04629); experiment: TrkA activity, off-chip mobility shift assay (LabChip 3000); assay type: biochemical; conditions: 55 μM ATP (ATP Km); n/d = none detected
TrkA, sequence (P04629 33-796): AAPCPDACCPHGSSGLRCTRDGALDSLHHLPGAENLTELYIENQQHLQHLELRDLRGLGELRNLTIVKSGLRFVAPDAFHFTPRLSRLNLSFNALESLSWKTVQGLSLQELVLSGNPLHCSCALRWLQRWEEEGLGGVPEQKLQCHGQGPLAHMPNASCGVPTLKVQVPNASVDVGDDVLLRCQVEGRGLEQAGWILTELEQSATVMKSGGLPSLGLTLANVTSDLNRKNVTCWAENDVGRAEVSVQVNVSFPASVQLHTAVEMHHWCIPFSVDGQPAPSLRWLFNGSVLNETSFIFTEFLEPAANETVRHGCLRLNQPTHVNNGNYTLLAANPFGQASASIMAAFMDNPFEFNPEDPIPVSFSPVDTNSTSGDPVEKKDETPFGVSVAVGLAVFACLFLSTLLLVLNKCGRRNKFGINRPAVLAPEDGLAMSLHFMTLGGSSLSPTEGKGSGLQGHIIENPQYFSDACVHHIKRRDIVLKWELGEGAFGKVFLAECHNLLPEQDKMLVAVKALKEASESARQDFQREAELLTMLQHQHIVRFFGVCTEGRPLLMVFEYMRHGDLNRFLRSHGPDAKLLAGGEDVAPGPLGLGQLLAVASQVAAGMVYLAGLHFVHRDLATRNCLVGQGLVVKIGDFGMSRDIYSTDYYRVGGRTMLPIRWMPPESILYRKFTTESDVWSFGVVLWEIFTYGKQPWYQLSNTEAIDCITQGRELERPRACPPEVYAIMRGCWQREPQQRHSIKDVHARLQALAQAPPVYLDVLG
From the text: as §1

TrkB, sequence (Q16620 32-822): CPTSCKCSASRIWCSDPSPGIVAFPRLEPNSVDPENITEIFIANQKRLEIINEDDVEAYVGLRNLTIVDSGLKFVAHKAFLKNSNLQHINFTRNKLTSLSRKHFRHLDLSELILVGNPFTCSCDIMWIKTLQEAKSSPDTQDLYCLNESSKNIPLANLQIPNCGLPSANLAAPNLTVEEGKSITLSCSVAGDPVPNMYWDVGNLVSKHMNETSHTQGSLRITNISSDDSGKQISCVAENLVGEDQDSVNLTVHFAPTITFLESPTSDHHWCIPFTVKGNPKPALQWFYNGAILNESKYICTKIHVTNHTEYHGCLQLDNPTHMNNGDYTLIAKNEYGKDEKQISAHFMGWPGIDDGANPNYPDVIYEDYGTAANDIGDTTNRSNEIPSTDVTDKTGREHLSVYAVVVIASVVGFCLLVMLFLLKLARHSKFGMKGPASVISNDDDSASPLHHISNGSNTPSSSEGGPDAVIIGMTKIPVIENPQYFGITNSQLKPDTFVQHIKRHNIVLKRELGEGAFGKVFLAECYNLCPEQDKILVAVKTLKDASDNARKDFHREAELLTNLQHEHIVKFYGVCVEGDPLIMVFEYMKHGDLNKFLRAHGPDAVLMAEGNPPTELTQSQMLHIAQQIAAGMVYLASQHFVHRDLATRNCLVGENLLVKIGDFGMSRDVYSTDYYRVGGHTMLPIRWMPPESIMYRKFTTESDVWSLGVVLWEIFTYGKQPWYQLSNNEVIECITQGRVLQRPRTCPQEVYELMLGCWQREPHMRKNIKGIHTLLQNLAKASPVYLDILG

COc1ccc(COc2ccc(Cn3cnc4cc(C5=CC6(O)CCCN5C6)ccc43)cc2OC)cn1 (stereo not shown) [Ex. 3-33, 7-(1-(3-Methoxy-4-((6-methoxypyridin-3-yl)methoxy)benzyl)-1H-benzo[d]imidazol-5-yl)-1-azabicyclo[3.2.1]oct-6-en-5-ol]
IC50 (TrkB): 0.372 µM
IC50 (TrkA): 1.16 µM

COc1ccc(COc2ccc(Cn3cnc4cc(-n5cc(C6CCCNC6)nn5)cnc43)cc2OC)cn1 (stereo not shown) [Ex. 3-25, 3-(3-Methoxy-4-((6-methoxypyridin-3-yl)methoxy)benzyl)-6-(4-(piperidin-3-yl)-1H-1,2,3-triazol-1-yl)-3H-imidazo[4,5-b]pyridine]
IC50 (TrkB): 0.018 µM
IC50 (TrkA): 0.032 µM

COc1cc(C(C)n2cnc3cc(-c4cnn(C)c4)cnc32)ccc1OCc1ccc(C(F)(F)F)nc1 (stereo not shown) [Ex. 3-52, 3-(1-(3-methoxy-4-((6-(trifluoromethyl)pyridin-3-yl)methoxy)phenyl)ethyl)-6-(1-methyl-1H-pyrazol-4-yl)-3H-imidazo[4,5-b]pyridine]
IC50 (TrkB): 0.001 µM
IC50 (TrkA): 0.007 µM

COc1ccc(COc2ccc(Cn3c(N)nc4cc(-c5ccn(C)n5)cnc43)cc2OC)cn1 [Ex. 3-37-2, 3-(3-methoxy-4-((6-methoxypyridin-3-yl)methoxy)benzyl)-6-(1-methyl-1H-pyrazol-3-yl)-3H-imidazo[4,5-b]pyridin-2-amine]
IC50 (TrkB): 0.002 µM
IC50 (TrkA): 0.003 µM

COc1ccc(COc2ccc(Cn3cnc4cc(-c5noc(C6CCNCC6)n5)ccc43)cc2OC)cn1 [Ex. 3-22, 3-(1-(3-Methoxy-4-((6-methoxypyridin-3-yl)methoxy)benzyl)-1H-benzo[d]imidazol-5-yl)-5-(piperidin-4-yl)-1,2,4-oxadiazole]
IC50 (TrkB): 0.317 µM
IC50 (TrkA): 0.306 µM

COc1ccc(COc2ccc(Cn3cnc4cc(-c5nnc(C6CCNCC6)o5)cnc43)cc2OC)cn1 [Ex. 3-23, 2-(3-(3-Methoxy-4-((6-methoxypyridin-3-yl)methoxy)benzyl)-3H-imidazo[4,5-b]pyridin-6-yl)-5-(piperidin-4-yl)-1,3,4-oxadiazole]
IC50 (TrkB): 0.057 µM
IC50 (TrkA): 0.051 µM

COc1ccc(COc2ccc(Cn3c(N)nc4cc(-c5cnn(C)c5)cnc43)cc2OC)cn1 [Ex. 3-35-1, 3-(3-methoxy-4-((6-methoxypyridin-3-yl)methoxy)benzyl)-6-(1-methyl-1H-pyrazol-4-yl)-3H-imidazo[4,5-b]pyridin-2-amine]
IC50 (TrkB): 0.0003 µM
IC50 (TrkA): 0.0006 µM

COc1cc(Cn2c(N)nc3cc(-c4cnn(C)c4)cnc32)ccc1OCc1ccc(C(C)C)nc1 [Ex. 3-40-3, 3-(4-((6-isopropylpyridin-3-yl)methoxy)-3-methoxybenzyl)-6-(1-methyl-1H-pyrazol-4-yl)-3H-imidazo[4,5-b]pyridin-2-amine]
IC50 (TrkB): 0.0002 µM
IC50 (TrkA): 0.0002 µM

COc1cc(C(C)n2cnc3cc(-c4ccc(F)cc4)ccc32)ccc1OCc1ccc(C(F)(F)F)nc1 (stereo not shown) [Ex. 3-47, 5-(4-fluorophenyl)-1-(1-(3-methoxy-4-((6-(trifluoromethyl)pyridin-3-yl)methoxy)phenyl)ethyl)-1H-benzo[d]imidazole]
IC50 (TrkB): 0.427 µM
IC50 (TrkA): 1.24 µM

COc1ccc(COc2ccc(Cn3c(N)nc4cc(-c5cnn(CCN6CCOCC6)c5)ccc43)cc2OC)cc1 [Ex. 3-2-3, 1-(3-Methoxy-4-((4-methoxybenzyl)oxy)benzyl)-5-(1-(2-morpholinoethyl)-1H-pyrazol-4-yl)-1H-benzo[d]imidazol-2-amine]
IC50 (TrkB): 0.001 µM
IC50 (TrkA): 0.003 µM

COc1ccc(COc2ccc(Cn3cnc4cc(-n5cc(C(C)(C)N)nn5)cnc43)cc2OC)cn1 [Ex. 3-24, 2-(1-(3-(3-Methoxy-4-((6-methoxypyridin-3-yl)methoxy)benzyl)-3H-imidazo[4,5-b]pyridin-6-yl)-1H-1,2,3-triazol-4-yl)propan-2-amine]
IC50 (TrkB): 0.043 µM
IC50 (TrkA): 0.088 µM

COc1ccc(COc2ccc(Cn3c(N)nc4cc(N5CCN(C)CC5=O)ccc43)cc2OC)cn1 [Ex. 3-14, 1-(2-Amino-1-(3-methoxy-4-((6-methoxypyridin-3-yl)methoxy)benzyl)-1H-benzo[d]imidazol-5-yl)-4-methylpiperazin-2-one]
IC50 (TrkB): 4.37 µM
IC50 (TrkA): 8.98 µM

COc1cc(C(C)n2cnc3cc(C#CCCO)ccc32)ccc1OCc1ccc(C(F)(F)F)nc1 (stereo not shown) [Ex. 3-48-2, 4-(1-(1-(3-methoxy-4-((6-(trifluoromethyl)pyridin-3-yl)methoxy)phenyl)ethyl)-1H-benzo[d]imidazol-5-yl)but-3-yn-1-ol]
IC50 (TrkB): 0.127 µM
IC50 (TrkA): 0.692 µM

COc1cc(Cn2c(N)nc3cc(-c4cnn(C)c4)cnc32)ccc1OCc1ccc(OC(F)(F)F)cc1 [Ex. 3-40-1, 3-(3-methoxy-4-((4-(trifluoromethoxy)benzyl)oxy)benzyl)-6-(1-methyl-1H-pyrazol-4-yl)-3H-imidazo[4,5-b]pyridin-2-amine]
IC50 (TrkB): 0.0002 µM
IC50 (TrkA): 0.0002 µM

COc1ccc(C(C)Oc2ccc(Cn3cnc4cc(-c5ccnn5C)cnc43)cc2OC)cn1 (stereo not shown) [Ex. 3-58-1, 3-(3-methoxy-4-(1-(6-methoxypyridin-3-yl)ethoxy)benzyl)-6-(1-methyl-1H-pyrazol-5-yl)-3H-imidazo[4,5-b]pyridine formate]
IC50 (TrkB): 0.219 µM
IC50 (TrkA): 0.449 µM

COc1cc(Cn2c(N)nc3cc(-c4cnn(C)c4)cnc32)ccc1OCc1ccc(C(F)(F)C(F)(F)F)cc1 [Ex. 3-39, 3-(3-methoxy-4-((4-(perfluoroethyl)benzyl)oxy)benzyl)-6-(1-methyl-1H-pyrazol-4-yl)-3H-imidazo[4,5-b]pyridin-2-amine]
IC50 (TrkB): 0.0006 µM
IC50 (TrkA): 0.0003 µM

COc1ccc(COc2ccc(Cn3cnc4cc(C5=CC6(C)CCCN5C6)cnc43)cc2OC)cn1 (stereo not shown) [Ex. 3-30, 3-(3-Methoxy-4-((6-methoxypyridin-3-yl)methoxy)benzyl)-6-(5-methyl-1-azabicyclo[3.2.1]oct-6-en-7-yl)-3H-imidazo[4,5-b]pyridine]
IC50 (TrkB): 0.118 µM
IC50 (TrkA): 0.201 µM

COc1cc(Cn2c(N)nc3cc(-c4cnn(C)c4)cnc32)ccc1OCc1ccc(C(F)(F)F)nc1 [Ex. 3-35-2, 3-(3-methoxy-4-((6-(trifluoromethyl)pyridin-3-yl)methoxy)benzyl)-6-(1-methyl-1H-pyrazol-4-yl)-3H-imidazo[4,5-b]pyridin-2-amine]
IC50 (TrkB): 0.0002 µM
IC50 (TrkA): 0.0002 µM

COc1ccc(COc2ccc(Cn3cnc4cc(-c5noc(C6CCNCC6)n5)cnc43)cc2OC)cn1 [Ex. 3-21, 3-(3-(3-Methoxy-4-((6-methoxypyridin-3-yl)methoxy)benzyl)-3H-imidazo[4,5-b]pyridin-6-yl)-5-(piperidin-4-yl)-1,2,4-oxadiazole]
IC50 (TrkB): 0.024 µM
IC50 (TrkA): 0.026 µM

COc1ccc(C(C)Oc2ccc(Cn3cnc4cc(-c5cnn(C)c5)cnc43)cc2OC)cn1 (stereo not shown) [Ex. 3-57, 3-(3-methoxy-4-(1-(6-methoxypyridin-3-yl)ethoxy)benzyl)-6-(1-methyl-1H-pyrazol-4-yl)-3H-imidazo[4,5-b]pyridine formate]
IC50 (TrkB): 0.013 µM
IC50 (TrkA): 0.035 µM

COc1ccc(COc2ccc(Cn3cnc4cc(N5CC6(CCNCC6)C5)cnc43)cc2OC)cn1 [Ex. 3-18-5, 3-(3-Methoxy-4-((6-methoxypyridin-3-yl)methoxy)benzyl)-6-(2,7-diazaspiro[3.5]nonan-2-yl)-3H-imidazo[4,5-b]pyridine]
IC50 (TrkB): 0.021 µM
IC50 (TrkA): 0.025 µM

COc1cc(Cn2cnc3cc(C#CCCO)cnc32)ccc1OCc1ccc(C(F)F)nc1 [Ex. 3-56, 4-(3-(4-((6-(difluoromethyl)pyridin-3-yl)methoxy)-3-methoxybenzyl)-3H-imidazo[4,5-b]pyridin-6-yl)but-3-yn-1-ol]
IC50 (TrkB): 0.004 µM
IC50 (TrkA): 0.017 µM

COc1ccc(COc2ccc(Cn3cnc4cc(N5CCC(C(C)(C)N)CC5)ccc43)cc2OC)cn1 [Ex. 3-10, 2-(1-(1-(3-Methoxy-4-((6-methoxypyridin-3-yl)methoxy)benzyl)-1H-benzo[d]imidazol-5-yl)piperidin-4-yl)propan-2-amine]
IC50 (TrkB): 0.574 µM
IC50 (TrkA): 0.652 µM

COc1ccc(COc2ccc(Cn3c(N)nc4cc(-c5cncnc5)ccc43)cc2OC)cc1 [Ex. 3-2-1, 1-(3-Methoxy-4-((4-methoxybenzyl)oxy)benzyl)-5-(pyrimidin-5-yl)-1H-benzo[d]imidazol-2-amine]
IC50 (TrkB): 0.023 µM
IC50 (TrkA): 0.086 µM

COc1ccc(COc2ccc(Cn3cnc4cc(N5CCC(N)CC5)ccc43)cc2OC)cn1 [Ex. 3-12, 1-(1-(3-Methoxy-4-((6-methoxypyridin-3-yl)methoxy)benzyl)-1H-benzo[d]imidazol-5-yl)piperidin-4-amine]
IC50 (TrkB): 0.637 µM
IC50 (TrkA): 1.03 µM

COc1ccc(COc2cc(F)c(Cn3cnc4cc(N5CCN(C)CC5)ccc43)cc2OC)cn1 [Ex. 3-27, 1-(2-fluoro-5-methoxy-4-((6-methoxypyridin-3-yl)methoxy)benzyl)-5-(4-methylpiperazin-1-yl)-1H-benzo[d]imidazole]
IC50 (TrkB): 0.305 µM
IC50 (TrkA): 0.852 µM

COc1ccc(COc2ccc(Cn3c(N)nc4cc(-c5ccc(F)cc5)cnc43)cc2OC)cn1 [Ex. 3-37-1, 6-(4-fluorophenyl)-3-(3-methoxy-4-((6-methoxypyridin-3-yl)methoxy)benzyl)-3H-imidazo[4,5-b]pyridin-2-amine]
IC50 (TrkB): 0.004 µM
IC50 (TrkA): 0.009 µM

COc1cc(Cn2cnc3cc(-c4cnn(C5CCNCC5)c4)cnc32)ccc1OCc1ccc(C)nc1 [Ex. 3-20, 3-(3-Methoxy-4-((6-methylpyridin-3-yl)methoxy)benzyl)-6-(1-(piperidin-4-yl)-1H-pyrazol-4-yl)-3H-imidazo[4,5-b]pyridine]
IC50 (TrkB): 0.0006 µM
IC50 (TrkA): 0.0009 µM

COc1ccc(COc2ccc(Cn3cnc4cc(N5CCOCC5)cnc43)cc2OC)cn1 [Ex. 3-18-2, 4-(3-(3-Methoxy-4-((6-methoxypyridin-3-yl)methoxy)benzyl)-3H-imidazo[4,5-b]pyridin-6-yl)morpholine]
IC50 (TrkB): 0.031 µM
IC50 (TrkA): 0.09 µM
